From patent US20240342216A1, “METHODS OF TREATING CANCER” (Therapeutics By Design, LLC, priority 2021, published 2024)
“Also recorded” adds a separate entry of the source.

B1: BMP-7: bone morphogenetic protein-7, member of the transforming growth factor-beta superfamily (protein, UniProt P18075 293-431, looked up)
Bone morphogenetic protein 7: STGSKQRSQNRSKTPKNQEALRMANVAENSSSDQRQACKKHELYVSFRDLGWQDWIIAPEGYAAYYCEGECAFPLNSYMNATNHAIVQTLVHFINPETVPKPCCAPTQLNAISVLYFDDSSNVILKKYRNMVVRACGCH

Key:
[1] = system: human breast cancer stem cells; assay: mammosphere (tumorsphere) formation assay, self-renewal in vitro; format: cell-based; conditions: for inhibition of mammosphere / tumorsphere formation: non-adherent culture, serum-free stem cell medium, 5 to 7 days
Description: Isolated human breast cancer stem cells treated with BMP-7 (500 ng/ml) for 7 days in non-adherent culture.
To investigate Peptide 123 (SEQ ID NO: 1) and BMP-7 effects on cancer stem cell function, their ability to influence self-renewal in vitro by using the mammosphere assay was examined. The mammosphere assay was developed as a method to propagate mammary epithelial stem cells (MaSC) in vitro by Dontu et al. (Genes Dev 17: 1253-1270 (2003)).
A procedure as described in manufacturer's manual (ProMab, California) was followed to grow cancer stem cells into mammospheres. For mammosphere culture, isolated human breast cancer stem cells were seeded in six well ultralow adherence plates (Corning Inc., Corning, NY, USA) and grown as non-adherent cell suspensions in serum-free stem cell culture medium (ProMab, California). Primary and secondary mammosphere formation was achieved by using weekly trypsinization and dissociation, followed by reseeding in ultralow adherence six well plates.

[2] = system: human breast cancer stem cells; assay: FACS quantification of CD44+ and E-cadherin+ cells; format: cell-based; conditions: for percent loss of CD44+ cells / percent gain in E-cadherin+ cells: non-adherent culture 8 days, vs untreated; for change in CD44+ cells (stem cell phenotype), in words / change in E-Cadherin+ cells (epithelial phenotype), in words: vs untreated control
Description: Untreated cells were incubated with APC labeled mouse anti-human antibody to CD44 antibody and FITC labeled rat anti-human E-Cadherin antibody. Cells were gated to exclude events in water and events due to cell death and debris. Cells were then gated to identify CD44+ and E-Cadherin+ populations based on corresponding fluorescence activity and labeled R7 and R11 respectively. […] Untreated cells were incubated with corresponding isotype antibodies, APC labeled mouse IgG1 and FITC labeled mouse IgG1. Cells were gated to exclude events in water and events due to cell death and debris.
(§1) Cells were plated and incubated for 24 hours to form tumorspheres. On day 2, cells were treated with 300 μM P123, followed by subsequent treatments on days 3, 5, and 8. Cells were then incubated with APC labeled mouse anti-human CD44 antibody and FITC labeled rat anti-human E-Cadherin antibody. Cells were gated to exclude events in water and events due to cell death and debris. Cells were then gated to identify CD44+ and E-Cadherin+ populations based on corresponding fluorescence activity and labeled R7 and R11 respectively. […] Cells were treated with P123 as described in (A). Cells were then incubated with corresponding isotype antibodies, APC labeled mouse IgG1 and FITC labeled mouse IgG1. Cells were gated to exclude events in water and events due to cell death and debris.
as §1, with “BMP-7 at 430 ng/ml with” for “300 μM P123, followed by”, “treatments at 362 ng/ml” for “treatments”, “day” for “days”, “3, 314 ng/ml on day” for “3,”, “277 ng/ml on day 8 (media was added at 10% volume resulting in decreased concentrations).” for “8.”, “BMP-7” for “P123”
Differentiation of chemo-resistant cancer stem cells, specifically a loss of its stem cell phenotype and self-renewal ability, could be a viable approach to the treatment of tumor recurrence and metastasis (Chirasani S R, Sternjak A, Wend P, et al. Bone morphogenetic protein-7 release from endogenous neural precursor cells suppresses the tumourigenicity of stem-like glioblastoma cells. Brain 2010, 133:1961-1972). Although this approach may or may not directly kill the cancer cells, it could make CSCs more responsive to conventional chemotherapies. Therefore, Peptide 123 and BMP-7 were examined to determine if they affected differentiation of human breast cancer stem cells. Sensitive flow cytometry method (Gupta V et al., Methods Mol Biol. 2011, 716: 179-191) to quantify CD44+, indicating stem cell phenotype, and E-cadherin+, indicating epithelial phenotype cells, after treatment with or without P123 (SEQ ID NO: 1) and BMP-7. Human breast cancer stem cells were grown in non-adherent cell suspension in serum-free medium for 8 Days. […] Importantly, the percent loss of CD44+ cells after treatment with the P123, 50%, was greater than that after treatment with BMP-7, 19% (FIGS. 4 and 5). Furthermore, a gain in E-cadherin+ cells was observed, which was proportional to the loss of CD44+ cells (FIGS. 4-6). Similarly, the percent gain in E-cadherin+ cells after treatment with P123, 50%, was greater than that after treatment with BMP-7, 19%, (FIG. 7).

[3] = system: bulk tumor cell growth from prostate cancer; conditions: by activating SMAD 1/5/8 signaling; Bosukonda et al. 2009; cited from earlier work

Molecule | inhibition of mammosphere / tumorsphere formation ([1]; 300 μM) | inhibition of mammosphere / tumorsphere formation ([1]; 300 μM, listed as P123) | percent loss of CD44+ cells ([2]; 300 uM, treated days 2, 3, 5, 8) [%] | percent gain in E-cadherin+ cells ([2]; 300 uM) [%] | change in CD44+ cells (stem cell phenotype), in words ([2]; 300 uM, listed as P123) | change in E-Cadherin+ cells (epithelial phenotype), in words ([2]; 300 uM, listed as P123) | inhibition of bulk tumor cell growth from prostate cancer [3] | mammosphere formation after withdrawal of treatment ([1]; 500 ng/ml for 7 days, then 7 days with no treatment) | inhibition of mammosphere / tumorsphere formation ([1]; 500 ng/ml) | percent gain in E-cadherin+ cells ([2]; 314-430 ng/ml) [%] | percent loss of CD44+ cells ([2]; 314-430 ng/ml) [%] | change in CD44+ cells (stem cell phenotype), in words ([2]; 314-430 ng/ml) | change in E-Cadherin+ cells (epithelial phenotype), in words ([2]; 314-430 ng/ml)
CYFDDSSNVLCKKYRS [Peptide 123, TDFRP, a peptide agonist of BMP signaling] | profound inhibition of tumorsphere formation | profound inhibition of mammosphere formation | 50 | 50 | marked decline in CD44+ cells; also recorded: marked decrease in CD44+ cells | marked increase in E-Cadherin+ cells; also recorded: majority of P123 treated cells were E-Cadherin+ | capable of inhibiting bulk tumor cell growth from prostate cancer | – | – | – | – | – | –
B1 | – | – | – | – | – | – | – | regained the ability to form tumorspheres; also recorded: significant increase in Mammosphere formation | inhibited tumorsphere formation; also recorded: moderate inhibition of mammosphere formation | 19 | 19 | marked decline in CD44+ cells; also recorded: a decrease in CD44+ cells | an increase in E-Cadherin cells; also recorded: an increase E-Cadherin+ with a large portion of CD44+ remaining
